Patent US20210163532A1, “NOVEL M[…] PEPTIDES” (University of Florida Research Foundation, Incorporated, priority 2018, published 2021)
Entries after “also recorded” stand apart in the source; their conditions may differ. Where a SMILES comes first, the peptide text is derived from it. [ ]: non-standard residue; d: D form. dNMeA = CN[C@H](C)C(=O)O; Sar = CNCC(=O)O

Assays:
[1] = target: T1, KOR (Mus musculus, UniProt P33534); assay: 55° C. warm-water tail-withdrawal assay, antagonism of U50,488-induced antinociception; assay type: in vivo; conditions: for KOR antagonism: i.c.v. pretreatment, U50,488 10 mg/kg i.p.
T1 construct: from tissue; host or cells: living C57Bl/6 mice (whole animal; CNS and periphery)
T1 sequence (P33534 whole entry): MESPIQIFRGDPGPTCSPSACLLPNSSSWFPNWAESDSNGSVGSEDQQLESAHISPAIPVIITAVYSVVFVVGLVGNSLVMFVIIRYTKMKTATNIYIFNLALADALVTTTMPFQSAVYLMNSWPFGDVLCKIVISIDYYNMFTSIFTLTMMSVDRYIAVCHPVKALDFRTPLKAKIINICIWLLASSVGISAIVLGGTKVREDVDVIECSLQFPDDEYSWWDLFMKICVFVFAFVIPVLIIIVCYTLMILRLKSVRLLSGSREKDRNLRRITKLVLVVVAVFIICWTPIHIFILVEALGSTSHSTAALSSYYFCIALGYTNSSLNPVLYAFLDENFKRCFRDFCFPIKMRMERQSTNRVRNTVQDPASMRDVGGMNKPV

[2] = target: T2, μ opioid receptor (Mus musculus, UniProt P42866); assay: 55° C. warm-water tail-withdrawal assay, antagonism of morphine-mediated antinociception; assay type: in vivo; conditions: 30 nmol i.c.v., 2.5 h pretreatment
T2 construct: mice are pretreated with the compound of the invention; from tissue; host or cells: living C57Bl/6 mice (whole animal)
T2 sequence (P42866 whole entry): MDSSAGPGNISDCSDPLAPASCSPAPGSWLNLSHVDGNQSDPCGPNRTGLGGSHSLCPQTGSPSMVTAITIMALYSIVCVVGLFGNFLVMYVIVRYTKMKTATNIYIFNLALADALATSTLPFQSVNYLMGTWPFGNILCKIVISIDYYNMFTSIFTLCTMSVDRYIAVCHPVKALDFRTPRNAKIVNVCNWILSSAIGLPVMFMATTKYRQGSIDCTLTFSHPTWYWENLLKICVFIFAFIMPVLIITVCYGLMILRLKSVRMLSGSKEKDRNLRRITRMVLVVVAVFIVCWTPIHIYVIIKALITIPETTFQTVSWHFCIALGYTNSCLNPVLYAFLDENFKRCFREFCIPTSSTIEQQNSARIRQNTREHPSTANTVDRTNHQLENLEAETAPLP

[3] = target: T3, δ opioid receptor (Mus musculus, UniProt P32300); assay: 55° C. warm-water tail-withdrawal assay, antagonism of SNC80-mediated antinociception; assay type: in vivo; conditions: 30 nmol i.c.v., 2.5 h pretreatment
T3 construct: from tissue; host or cells: living C57Bl/6 mice (whole animal)
T3 sequence (P32300 whole entry): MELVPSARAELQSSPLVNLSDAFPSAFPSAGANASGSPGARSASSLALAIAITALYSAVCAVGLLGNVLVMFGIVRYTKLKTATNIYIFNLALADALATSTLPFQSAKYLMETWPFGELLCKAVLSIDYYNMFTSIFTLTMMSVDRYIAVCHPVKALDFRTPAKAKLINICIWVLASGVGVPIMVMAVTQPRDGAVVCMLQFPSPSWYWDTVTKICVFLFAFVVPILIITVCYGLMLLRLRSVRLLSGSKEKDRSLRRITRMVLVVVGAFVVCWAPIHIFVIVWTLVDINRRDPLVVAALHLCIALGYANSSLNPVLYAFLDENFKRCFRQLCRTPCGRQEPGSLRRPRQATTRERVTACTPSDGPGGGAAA

[4] = test system: MOR KO mice; assay: Opioid receptor selectivity of antinociception, tail-withdrawal assay in MOR KO mice; assay type: in vivo, mouse; conditions: i.c.v.
[5] = test system: mice; assay: Reinstatement of extinguished ethanol conditioned place preference; assay type: in vivo, mouse; conditions: 0.01 nmol i.c.v.
Source text: Similarly mice were place-conditioned using ethanol in a conditioned place-preference assay [Sperling, R. E., Gomes, S. M., Sypek, E. I., Carey, A. N. and McLaughlin, J. P., 2010. Endogenous kappa-opioid mediation of stress-induced potentiation of ethanol-conditioned place preference and self-administration. Psychopharmacology, 210, 199-209] with a biased conditioning paradigm (see McLaughlin, J. P., Ganno M. L., Eans, S. O., Mizrachi, E. and Paris, J. P., 2014. HIV-1 Tat protein exposure potentiates ethanol reward and reinstates extinguished ethanol-conditioned place preference. Current HIV Research, 12(6), 415-423). […] Mice were then pretreated once daily for two days with vehicle (50% DMSO in 0.9% saline, i.c.v.) or cyclo[D-Phe-Pro-Sar-Phe] (0.01 nmol, i.c.v.) and exposed to two days of forced swim stress or an additional cycle of ethanol place conditioning as described above.

[6] = test system: KOR KO mice; conditions: 200 nmol i.c.v.; β-FNA 5 mg/kg s.c. −24 h
[7] = In vitro metabolic stability in mouse liver microsomes
[8] = test system: C57Bl/6 mice; assay: Reinstatement of extinguished cocaine conditioned place preference
[9] = test system: mice; assay: Reinstatement of extinguished morphine conditioned place preference; conditions: for stress-induced reinstatement of morphine CPP, peripheral pretreatment: 10 mg/kg i.p., nor-BNI once 24 h prior, cyclo[D-Phe-Pro-Sar-Phe] twice, 2.5 h prior to forced swimming daily
[10] = liver microsomes, apparent t1/2 in mouse liver microsomes, mouse liver microsomes, 37° C.

For `CN1CC(=O)N[C@@H](Cc2ccccc2)C(=O)N[C@H](Cc2ccccc2)C(=O)N2CCC[C@H]2C1=O` [cyclo[D-Phe-Pro-Sar-Phe]] (cyclo(F[dF]P[Sar])), the “antagonism of U50,488-induced antinociception after i.p. administration” value ([1]; 2.5 h pretreatment, i.p.) was “dose-dependent antagonism of U50,488-induced antinociception”, the “KOR antagonism” value [1] was “significantly antagonized KOR in a dose-dependent manner; also recorded: significant antagonism of only the KOR-selective agonist U50,488” and the “dose giving significant blockade of U50,488-induced antinociception (KOR antagonism)” value ([1]; i.c.v., 2.5 h pretreatment) was 1 pmol. The “KOR antagonism after oral administration” value ([1]; p.o., 2.5 h after administration) was “demonstrated KOR antagonism”, the “antagonism of centrally administered (i.c.v.) U50,488 after oral administration” value ([1]; p.o., U50,488 i.c.v.) was “dose-dependently antagonized i.c.v. U50,488” and the “morphine-mediated antinociception after pretreatment” value [2] was 100±0%. For the same compound, the “SNC80-mediated antinociception after pretreatment” value [3] was 87.1±7.7%, the “antinociception in opioid receptor KO mice” value ([4]; 1 nmol dose) was “significantly impaired only in MOR KO mice” and the “antinociception ED50 (and 95% C.I.) in MOR KO mice” value ([4]; MOR KO mice) was 58.2 (17.4-558) nmol. For the same compound, the “stress- and ethanol-induced reinstatement of ethanol CPP (FIG. 11)” value [5] was “prevented both stress- and ethanol-induced reinstatement of ethanol CPP”, the “stress-induced reinstatement of ethanol CPP” value ([5]; −2 h) was “prevented stress-induced reinstatement of ethanol CPP” and the “antinociception in KOR KO mice pretreated with MOR-selective antagonist β-FNA” value [6] was “completely inhibited”. The half-life [7, 10] was 60 min, the “cocaine-induced reinstatement of cocaine CPP” value ([8]; 0.01 nmol i.c.v., 5 min pretreatment) was “prevented cocaine-induced reinstatement” and the “reinstatement of cocaine CPP by compound alone” value ([8]; 0.01 nmol i.c.v., no stress or cocaine) was “did not induce reinstatement”. The “stress-induced reinstatement of cocaine CPP” value ([8]; 0.01 nmol i.c.v., −1.5 h) was “prevented stress-induced reinstatement of cocaine CPP”, the “stress-induced reinstatement of cocaine CPP, oral” value ([8]; 30 mg/kg and 60 mg/kg p.o., −2.5 h) was “prevented stress-induced reinstatement of cocaine CPP” and the “stress- and cocaine-induced reinstatement of CPP after oral administration (FIG. 10B)” value ([8]; p.o.) was “prevented both stress- and cocaine-induced reinstatement of CPP after oral administration”. For the same compound, the “morphine-induced reinstatement of morphine-CPP, lower dose” value ([9]; 0.01 nmol i.c.v.) was “did not have significant effects”, the “reinstatement of extinguished morphine CPP by compound alone” value ([9]; 0.01 nmol i.c.v.) was “did not directly reinstate extinguished CPP” and the “stress-induced reinstatement of morphine CPP” value ([9]; 0.01 nmol i.c.v., −2.5 h) was “prevented stress-induced reinstatement of morphine CPP”. The “morphine-induced reinstatement of morphine-CPP” value ([9]; 0.03 nmol i.c.v., 5 min pretreatment) was “prevented morphine-induced reinstatement of morphine-CPP” and the “stress-induced reinstatement of morphine CPP, peripheral pretreatment” value [9] was “prevented stress-induced reinstatement”.

With `Oc1ccc2c3c1O[C@H]1c4[nH]c5c(c4C[C@@]4(O)[C@@H](C2)N(CC2CC2)CC[C@]314)C[C@@]1(O)[C@H]2Cc3ccc(O)c4c3[C@@]1(CCN2CC1CC1)[C@H]5O4` [nor-BNI, nor-binaltorphimine, reference compound] the “stress-induced reinstatement of morphine CPP, peripheral pretreatment” value [9] was “prevented stress-induced reinstatement”.

`O=C1N[C@H](Cc2c[nH]c3ccccc23)C(=O)N[C@@H](Cc2ccccc2)C(=O)N2CCC[C@@H]2C(=O)N[C@H]1Cc1ccccc1` [[D-Trp]CJ-15,208, reference compound] (cyclo(F[dP]F[dW])) showed a half-life ([7]; microsomes) of 11 min.

In the case of `C[C@@H]1C(=O)N[C@@H](Cc2ccccc2)C(=O)N[C@H](Cc2ccccc2)C(=O)N2CCC[C@H]2C(=O)N1C` [cyclo[D-Phe-Pro-D-NMe-Ala-Phe]] (cyclo(F[dF]P[dNMeA])), the “KOR antagonism” value [1] is reported as “did not exhibit KOR antagonist activity” and the half-life [7, 10] is reported as 12 min.
